Laboratory results published in US6500843B2, “Inhibitors of rotamase enzyme activity” (GPI NIL Holdings, Inc., priority 1995, dated 2002).
Where two headings read alike, the source gives them in different places.

Key:
[1] = target: rotamase activity of FKBP-12 (Homo sapiens, UniProt P62942); assay: Rotamase inhibition (FKBP-12); assay type: biochemical
[2] = test system: chick dorsal root ganglion explant cultures; assay: Neurite outgrowth in chick dorsal root ganglion explant cultures; assay type: cell-based; details: for EC50: Gallus gallus
Method: Explants of chick DRG were cultured as described in FIG. 17 above. […] At 48 hrs., neurite outgrowth was quantitated and the cultures were photographed. Dorsal root ganglion were dissected from chick embryos of ten day gestation. […] Twenty-four hours later, the DRG's were treated with various concentrations of nerve growth factor, immunophilin ligands or combinations of NGF plus drugs. Forty-eight hours after drug treatment, the ganglia were visualized under phase contrast or Hoffman Modulation contrast with a Zeiss Axiovert inverted microscope. Photomicrographs of the explants were made, and neurite outgrowth was quantitated. […] Three to four DRGs are cultured per well, and each treatment was performed in duplicate.

PC-12 cells = assay: Neurite outgrowth in PC-12 cells in the presence of NGF; details: for Concentration for maximal effects on neurite extension: 4 days; for EC50: Rattus norvegicus
FKBP = FKBP (Rattus norvegicus, UniProt Q62658); assay: [3H]FK506 binding to PC-12 cell homogenates; details: untreated PC-12 cell homogenates, 250 pM radioligand
FKBP, sequence (Q62658 whole entry): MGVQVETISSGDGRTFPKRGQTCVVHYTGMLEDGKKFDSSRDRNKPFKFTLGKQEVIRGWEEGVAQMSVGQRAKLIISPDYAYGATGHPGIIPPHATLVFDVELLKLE
Method: Cultures were scraped from the culture wells and homogenized in 10 volumes of 50 mM Tris-HCl, pH 7.4, 1 mM EDTA, 100 μg/ml phenylmethylsulfonylfluoride and centrifuged at 40,000×g for 20 min at 4° C. Protein was determined by the Coomassie blue dye binding assay using bovine serum albumin as a standard. […] The column was further washed with 0.4 ml of assay buffer, the eluates collected, mixed with Formula 963 (DuPont/NEN) and counted in a Beckman scintillation counter.

dorsal root ganglia = assay: Neurite outgrowth in rat embryonic day 16 dorsal root ganglia explants; assay type: cell-based; details: no added NGF
Method: Stage E16 embryos were removed from pregnant Sprague-Dawley rats and the dorsal root ganglia dissected. Whole ganglia explants were cultured in collagen-coated 35 mm dishes (Falcon) using N2 medium (Dulbecco's Modified Eagle medium and Ham's F12 medium mixed 1:1 and supplemented with progesterone, selenium, insulin, putrescine, glucose, and penicillin-streptomycin) at 37° C. in a 15% CO2 environment. […] Ganglia were observed every 2-3 days under phase-contrasting using an Olympus IMT-2 inverted microscope, and measurements of axon length were made. The axonal field of each ganglion was divided into four quadrants, and the length of the longest axons in each quadrant was measured in microns using an eye-piece micrometer. The average of these measurements was taken as the axon length for the ganglion.

recombinant FKBP-12 = recombinant FKBP-12 (Homo sapiens, UniProt P62942); assay: Inhibition of 3H-FK506 binding to recombinant FKBP-12; details: read-out: [3H]-FK506-FKBP12 (IC50)
recombinant FKBP-12, sequence (P62942 whole entry, species assumed): as the sequence (Q62658 whole entry) above, with S10P, T50M, I76T counted along it

[3] = test system: Sprague-Dawley rats, sciatic nerve crush; assay: Sciatic nerve axotomy (crush) model of nerve regeneration; assay type: in vivo, rat
Method: Six-week old male Sprague-Dawley rats were anesthetized, and the sciatic nerve exposed and crushed, at the level of the hip, by forceps. Test compounds or vehicle were administered subcutaneously just prior to the lesion and daily for the following 18 days. Sections of the sciatic nerve were stained with Holmes silver stain to quantify the number of axons, and Luxol fast blue to quantify the level of myelination. Eighteen days after lesion, there was a significant decrease in the number of axons (50% decrease as compared to non-lesioned control) and degree of myelination (90% decrease as compared to non-lesioned control) in animal treated with vehicle.

calcineurin = assay: Calcineurin inhibition; assay type: biochemical; details: YES/NO
[4] = Table I, read-out: Rotamase Inhibition Ki
[5] = Neuron, Table I, cultured sensory neurons, read-out: Neutrophic ED50 Chick DRGs
[6] = PC-12, 96 h, read-out: Half-maximal stimulation of neurite extension
[7] = 0.1 ng/ml NGF, 48 hr, read-out: EC50 for stimulating nerve outgrowth in the ganglia
[8] = 30 mg/kg s.c. daily, 18 days after lesion
[9] = s.c. daily for 18 days following the lesion

rotamase activity of FKBP-12, sequence (P62942 whole entry): as the sequence (Q62658 whole entry) above, with S10P, T50M, I76T counted along it

With `CCC(C)(C)C(=O)C(=O)N1CCCC[C@H]1C(=O)OC(CCCCc1ccccc1)c1ccccc1` (stereo partly shown) [Example 104] the Ki [1, 4] was 20 nM.

Molecule `O=C(C(=O)N1CCCC[C@H]1C(=O)OCCCC1CCCCC1)C1CCCCC1` [Example 106] has a Ki [1, 4] of 760 nM and an EC50 [2, 5] of 1 nM.

With NGF: nerve growth factor the “NGF concentration for maximal augmentation of neurite outgrowth” value (PC-12 cells; 48 hr) was 50 to 100 ng/mL, the “NGF concentration for half maximal outgrowth in the presence of FK506” value (PC-12 cells; FK506 100 nM, 48 hr) was 0.1 ng/mL and the “Neurite extension as % of maximal effects evident at 50 ng/ml NGF” value (PC-12 cells; NGF alone at 0.1 ng/ml) was “about 15%”.

In the case of `CO[C@H]1C[C@@H]2CC[C@@H](C)[C@@](O)(O2)C(=O)C(=O)N2CCCC[C@H]2C(=O)O[C@H]([C@H](C)C[C@@H]2CC[C@@H](O)[C@H](OC)C2)CC(=O)[C@H](C)/C=C(\C)[C@@H](O)[C@@H](OC)C(=O)[C@H](C)C[C@H](C)/C=C/C=C/C=C/1C` [Rapamycin], the “Concentration for maximal effects on neurite extension” value (from here on “Concentration for maximal effects”) (PC-12 cells; 0.5 ng/ml NGF) is reported as 10 to 100 nM, the “Stimulation of neurite outgrowth” value (PC-12 cells; 0.1-0.5 ng/ml NGF, 100 nM drug, 96 hours) is reported as 3-4 fold and the EC50 (PC-12 cells; [6]) is reported as 0.2 to 0.4 nM. The EC50 [2, 7] was 1 nM.

In the case of `CCC(C)(C)C(=O)C(=O)N1CCCC[C@H]1C(=O)OC(CCCc1ccccc1)CCCc1ccccc1` [Example 99], the EC50 [2, 5] is reported as 5 nM.

`CCC(C)(C)C(=O)C(=O)N1CCCC[C@H]1C(=O)OCCCc1ccc2c(c1)OCO2` [Example 103] gave a Ki [1, 4] of 120 nM and an EC50 [2, 5] of 3 nM.

For `CCOC(=O)C1CCCCN1C(=O)C(C)=O` (stereo not shown) [Example 36], the Ki [1, 4] was over 10000 nM.

For `C=CC[C@@H]1/C=C(\C)C[C@H](C)C[C@H](OC)[C@H]2O[C@@](O)(C(=O)C(=O)N3CCCC[C@H]3C(=O)O[C@H](/C(C)=C/[C@@H]3CC[C@@H](O)[C@H](OC)C3)[C@H](C)[C@@H](O)CC1=O)[C@H](C)C[C@@H]2OC` [FK506], the IC50 (FKBP) was 1 to 2 nM, the “Maximal enhancement of neurite outgrowth” value (PC-12 cells; 0.5 ng/ml NGF, 100 nM drug, 96 hours) was 2.5 fold and the “Concentration for maximal effects” value (PC-12 cells; 0.5 ng/ml NGF) was 5 to 100 nM. For the same molecule, the “Concentration eliciting the same maximal outgrowth observed with 50 ng/ml NGF” value (PC-12 cells; 1 ng/ml NGF, 48 hr) was 1 nM, the “Reduction of the NGF concentration needed to elicit maximal outgrowth” value (PC-12 cells; FK506 100 nM, 48 hr) was 20-50 fold and the EC50 (PC-12 cells; PC-12, 48 h, read-out: Half maximal effects on neurite outgrowth) was about 0.1 nM. For the same molecule, the EC50 (PC-12 cells; [6]) was 0.5 nM, the EC50 (PC-12 cells; PC-12, read-out: Neurite Outgrowth (ED50)) was 0.5 nM and the “Concentration producing a noticeable increase in growth” value (dorsal root ganglia) was 1 nM. The “Concentration producing detectable augmentation of neurite outgrowth” value (dorsal root ganglia) was 1 pM, the “Concentration required for maximal outgrowth” value (dorsal root ganglia) was 1 pM and the EC50 [2, 7] was 1 to 2 nM.

`CCC(C)(C)C(=O)C(=O)N1CCCC[C@H]1C(=O)OCCCc1ccc2c(c1)OCO2` [Example 94] showed a Ki [1, 4] of 70 nM.

For `COc1ccc(CCCCOC(=O)[C@@H]2CCCCN2C(=O)Cc2cc(OC)c(OC)c(OC)c2)cc1` [Example 6], the Ki [1, 4] was 140 nM and the EC50 [2, 5] was 25 nM.

`CCOC(=O)C1CCCCN1C(=O)C(=O)c1ccccc1` (stereo not shown) [Example 50] gave a Ki [1, 4] of over 10000 nM.

`O=C(C(=O)N1CCCC[C@H]1C(=O)OCCCc1ccccc1)C1CCCCC1` [Example 107] was tested, and the Ki [1, 4] was 210 nM and the EC50 [2, 5] was 0.82 nM.

In the case of `CCOC(=O)C1CCCCN1C(=O)C(=O)C(C)(C)CC` (stereo not shown) [Example 41], the Ki [1, 4] is reported as 1300 nM.

In the case of `CCC(C)(C)C(=O)C(=O)N1CCCC[C@H]1C(=O)OCCCCc1ccc(OC)cc1` [Example 100], the Ki [1, 4] is reported as 60 nM.

For `CCC(C)(C)C(=O)C(=O)N1CCCCC1C(=O)OCCCc1cc(OC)c(OC)c(OC)c1` (stereo not shown) [Example 13], the Ki [1, 4] was 25 nM, the IC50 (recombinant FKBP-12; Table 3) was 4000 nM and the “Axon Number (% Control)” value [3, 8] was 100 % Control. For the same molecule, the “Myelin Level” value [3, 8] was 50, the “Decrease in axon number as compared to non-lesioned control” value [3, 9] was 5% and the “Decrease in degree of myelination as compared to control” value [3, 9] was 50%.

With `CCC(C)(C)C(=O)C(=O)N1CCCC[C@H]1C(=O)OCCCc1cccnc1` [Example 98] the Ki [1, 4] was 130 nM and the EC50 [2, 5] was 75 nM.

In the case of `CCC(C)(C)C(=O)C(=O)N1CCCCC1C(=O)OCC=Cc1cc(OC)c(OC)c(OC)c1` (stereo not shown) [Example 91], the Ki [1, 4] is reported as 28 nM and the EC50 [2, 5] is reported as 200 nM.

`CC1(C)COC(=O)CCCCCCCCCOC(=O)[C@@H]2CCCCN2C(=O)C1=O` [Example 19] was tested, and the Ki [1, 4] was 12 nM and the EC50 [2, 5] was 0.017 nM.

Molecule `COc1ccc(CCCCOC(=O)[C@@H]2CCCCN2C(=O)C(=O)c2cc(OC)c(OC)c(OC)c2)cc1` [Example 9] has an EC50 [2, 5] of 0.03 nM.

Work on `CCC(C)(C)C(=O)C(=O)N1CCCCC1C(=O)OCC=Cc1ccccc1` (stereo not shown) [Example 92] yielded a Ki [1, 4] of 39 nM and an EC50 [2, 5] of 90 nM.

With `COC1CC2CCC(C)C(O)(O2)C(=O)C(=O)N2CCCCC2C(=O)OC(C(C)CC2CCC(O)C(OC)C2)CC(=O)C(C)C=C(C)C(O)C(OC)C(=O)C(C)CC(C)C2C=CC(C=C1C)n1c(=O)n(-c3ccccc3)c(=O)n12` (stereo not shown) [WAY-124466] the Ki ([1]; Table 2, read-out: Rotamase (Ki)) was 12 nM, the “Calcineurin Inhibition” value (calcineurin) was “fails to inhibit calcineurin” and the “Concentration for maximal effects” value (PC-12 cells; 0.5 ng/ml NGF) was 100-1,000 nM. For the same molecule, the EC50 (PC-12 cells; [6]) was about 10 nM, the “Potentiation of neurite extension elicited by NGF” value (PC-12 cells; picomolar concentrations, 0.5 ng/ml NGF, 4 days (FIG. 15)) was “potentiate neurite extension” and the “Potentiation of NGF-dependent neurite production in sensory ganglia” value ([2]; 100 nM, plus or minus 0.1 ng/ml NGF, 48 hrs (FIG. 18)) was “potentiate NGF-dependent neurite production”. The IC50 (recombinant FKBP-12; Table 2) was 10 nM.

`CCC(C)(C)C(=O)C(=O)N1CCCCC1C(=O)OC(CCCc1ccccc1)CCc1ccc(OC)cc1` (stereo not shown) [Example 101] was tested, and the Ki [1, 4] was 15 nM and the EC50 [2, 5] was 0.17 nM.

In the case of `CCC(C)(C)C(=O)C(=O)N1CCCC[C@H]1C(=O)OCCCc1cc(OC)ccc1OC` [Example 93], the Ki [1, 4] is reported as 75 nM.

`COc1ccc(CCCCOC(=O)[C@@H]2CCCCN2C(=O)C(=O)C2CCCCC2)cc1` [Example 105] gave a Ki [1, 4] of 103 nM.

`CCC(C)(C)C(=O)C(=O)N1CCCC[C@H]1C(=O)OCCCc1cc(OC)ccc1OC` [Example 102] was tested, and the Ki [1, 4] was 12 nM, the “Neurite outgrowth in photomicrographs” value ([2]; 1 pM, 100 pM and 100 nM (FIGS. 19-21)) was “promoting neurite outgrowth” and the EC50 [2, 5] was 205 nM.

`CCC(C)(C)C(=O)C(=O)N1CCCCC1C(=O)OCC=Cc1ccc(Cl)c(Cl)c1` (stereo not shown) [Example 90] gave a Ki [1, 4] of 1800 nM and an EC50 [2, 5] of 2500 nM.

`COc1ccc(CCCCOC(=O)[C@@H]2CCCCN2C(=O)C(=O)c2ccccc2)cc1` [Example 95] gave a Ki [1, 4] of 165 nM.

For `O=C(C(=O)N1CCCC[C@H]1C(=O)OCCCc1ccccc1)c1ccccc1` [Example 96], the Ki [1, 4] was 740 nM.
